Assay results as given in patent publication US6124266A, “Sulpholipid composition and methods for treating skin disorders” (Scotia Lipid Teknik AB, priority 1996, dated 2000).
Where two headings read alike, the source gives them in different places. Each block holds one compound with its values, some of them ahead of it.

Columns and labels:
[1] = system: carrageenan induced rat paw oedema; test: Rat paw oedema induced by carrageenan; type: in vivo, rat (Spraque Dawley); conditions: Na-salicylate 200 mg/kg (positive control), p < 0.0005
Protocol: The most commonly used inducer is carrageenan which is injected to the hind paw of male Spraque Dawley rats.
Several tests were performed with the methanolic Calaguala extract which was applied orally in doses 500-2000 mg/kg. As positive control the cyclo-oxygenase inhibitor Na-salicylate (200 mg/kg) was used.
The significancies were calculated using Students t-test (one tailed).

[2] = system: leukotriene B4 synthesis in human leucocytes; conditions: cited from earlier work
PAF receptor [3] = conditions: cited from earlier work
PAF receptor [4] = biological target: T1, PAF receptor (Homo sapiens, UniProt P25105); test: [3H]PAF receptor binding assay; conditions: human polymorphonuclear leukocytes, 120 min, 20° C., pH 7.0, 0.35-0.40 nM [3H]PAF; mean of 2-4 experiments in triplicate; read-out: IC50, displacement of [3H]PAF binding
T1 construct: endogenous in cells; host or cells: human polymorphonuclear leukocytes (intact cells from concentrated suspensions of human leukocytes)
T1 sequence (P25105 whole entry): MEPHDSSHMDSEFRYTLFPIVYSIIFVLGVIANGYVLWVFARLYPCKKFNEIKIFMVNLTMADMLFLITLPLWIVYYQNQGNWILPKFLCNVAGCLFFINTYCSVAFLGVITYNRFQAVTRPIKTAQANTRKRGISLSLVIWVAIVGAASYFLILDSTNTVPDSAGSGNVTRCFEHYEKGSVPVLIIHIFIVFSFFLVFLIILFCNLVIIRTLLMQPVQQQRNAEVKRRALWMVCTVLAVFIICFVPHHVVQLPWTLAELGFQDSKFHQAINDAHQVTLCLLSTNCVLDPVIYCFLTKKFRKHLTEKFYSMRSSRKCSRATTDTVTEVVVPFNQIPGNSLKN
Source text: (§1) The PAF induced exocytosis model described above is used for screening for PAF receptor antagonists since it is a rapid, reproducable and reliable so called functional assay for PAF. However, a number of other actions, like elastase inhibition or membrane stabilisation, would also result in an inhibitory effect in the model which consequently is not exclusive for PAF receptor antagonism. To elucidate if SQDG acts through PAF receptor antagonism in the neutrophil, a receptor binding model using [3H]PAF as the radioligand was used.
Cell preparation: For the receptor binding experiments the cells were prepared in the same way as described above except that concentrated suspensions of human leukocytes in a CDP-adenine solution were used and in the final step the cells were suspended in the incubation buffer and the cell count was adjusted to 3.1×10^6 cells/ml.
[^3 H]PAF (C18; 1-O-[^3 H]octadecyl-2-acetyl-sn-3-phosphocholine; Amersham, England) receptor binding was studied in human polymorphonuclear leukocytes (2.5×10^6 cells/ml) using a method recently reevaluated by us (Vasange et al., in press, 1996). Incubations were performed for 120 min at 20° C. in a total volume of 1.0 ml containing […] 25 mM Tris HCl, 130 mM NaCl, 5.5 mM KCl, 1.4 mM CaCl2, 0.7 mM MgCl2, 10 mM glucose, 0.5% BSA and 0.35-0.40 nM [^3 H]PAF. Final pH was 7.0 at the incubation temperature used. Non-specific binding was determined with 1 μM C16-PAF (Bachem, Switzerland). The incubation contents were rapidly filtered by vacuum over Whatman GF/C glass-fibre filters using a 12 well Skatron Cell Harverster (Skatron A/S, Norway) and washed with 3×2 ml incubation buffer containing 0.1% BSA. The filtration took less than 15 s. Filters were also pre-soaked with incubation buffer containing 0.1% BSA. Following filtration, the filters were dried in an oven at 70° C. for 30 min and equilibrated for two hours in the scintillation vials before counting in a Packard scintillator at an efficiency of 55%. […]

[5] = system: PAF induced elastase release in human neutrophils; test: PAF induced exocytosis (elastase assay); type: cell-based; conditions: for inhibitory activity in the PAF induced exocytosis model: in concentrations around the IC50 of SQDG; for IC50: 10 min, human leucocytes, 37° C., mean of 2-4 experiments in duplicate, read-out: IC50, inhibition of PAF induced elastase release
Protocol: In this test, which is also called the elastase assay, the effect of the extracts on inhibiting the exocytosis induced by PAF was examined. This model was used to guide the fractionation of the extracts or isolated compounds.
Cell preparation: Peripheral blood anti-coagulated with heparin was obtained from healthy volunteers at the University Hospital (in Uppsala, Sweden). After sedimentation with 10% Dextran T-500 (Pharmacia Fine Chemicals) for 30 min at 20° C. the supernatant was removed and centrifuged at 200×g for 30 min. The sediments were treated with one volume of ice-cold water for 21 s followed by the addition of 9 volumes of Mg^2+ and Ca^2+ free PBS in order to lyse the remaining erythrocytes. After centrifugation (200×g for 10 min at 4° C.) the leucocytes were suspended in PBS (containing Mg^2+ and Ca^2+ and Cytochalasin B, Serva, 5 μg/ml) at a concentration of 10-30×10^6 cells/ml.
The assay was performed as described by Tuominen et al., Planta Medica 58, 306-310 (1992). In short leucocytes were incubated at 37° C. in PBS containing 2.5% BSA together with SAAVNA (N-succinyl-L-alanyl-L-alanyl-L-valine-p-nitroanilide, Bachem), the inhibitor in different concentrations or the vehicle (max. 0.1% DMSO) and PAF (Bachem) for 10 min. Blank tubes without PAF were run in parallel. The reaction was stopped by the addition of 2% citric acid and after the centrifugation, the samples were measured in a UV spectrophotometer at 405 nm. The absorbance of the corresponding blank tube was subtracted from the sample and the inhibition of PAF induced elastase release was calculated as the […] in absorbance as compared to the vehicle. The samples were analyzed as 4-5 concentrations ranging from 10^-3 M to 10^-7 M. They were dissolved in 10% DMSO (the isolated compound) or cyclodextrin (BN 52021, used as a reference) and then diluted with the buffer. The final concentration of DMSO or cyclodextrin never exceeded 0.1%.
as §1

tumour promotion = conditions: Chem. Pharm. Bull. 41 (9), 1664-1666, 1993; cited from earlier work
[6] = system: ethyl phenyl propiolate (EPP) induced rat ear oedema; test: Rat ear oedema (EPP induced); type: in vivo; conditions: mepyramine 1 μg/ear (positive control), 2 hours, 6 ears, p<0.01
Protocol: The rat ear oedema test is aimed to be used for detection of drugs with topical anti-inflammatory activity. It is based on the work by Tonelli et al., Endocrinology 77, 625-634, 1965, but instead of using the carcinogenic croton oil as induced, ethyl phenyl propiolate (EPP) is applied topically on the rat ears. The oedema develops rapidly (about 30 minutes) and starts to decline after two hours. Several measurements can be made by using a special measuring device and the values obtained with application of both EPP and the drug to be investigated are compared to values obtained with EPP alone.
The mechanism of the EPP induced oedema is not completely understood but it is known that compounds with broad anti-inflammatory action, like steroidal anti-inflammatory drugs, are active in this assay. The oedema can also be induced by other agents, such as arachidonic acid, and in that specific case the oedema is believed to develop through the action of the […], inflammatory mediators, leukotrienes. They can also contribute to the EPP oedema.
The Calaguala methanolic extract was tested in this model on several occasions. […]
The thickness of ears is measured after 2 hours. […] The significance of the values obtained was determined by using Students t-test (one tailed analysis). […]
The thickness of the ears was measured after 2 hours. […]

[7] = system: oedema induced by carrageenan potentiated by PAF; conditions: rat, in vivo; cited from earlier work

Compound: O=C(O)c1ccccc1O [Na-salicylate]
Mean decrease in oedema (Table 4) [1]: 43%

Compound: CCCCCCCC/C=C\CCCCCCCC(=O)O [oleic acid]
inhibition of leukotriene B4 synthesis [2]: comparable inhibitory patterns

Compound: COc1ccc(NC(=S)N2CCc3c(sc4c3C(c3ccccc3Cl)=NCc3nnc(C)n3-4)C2)cc1 [BN 50730]
PAF antagonistic activity in vitro (compared with BN 52021) (PAF receptor [3]; Guinot 1994): several ten-folds more potent
IC50 (PAF receptor [4]): 0.04 µM

Compound: monogalactosyldiacylglycerol [MGDG]
inhibitory activity in the PAF induced exocytosis model [5]: no inhibitory activity
inhibition of tumour promotion compared with SQDG (tumour promotion): inhibit tumour promotion more intensely than SQDG

Compound: COc1ccc(CN(CCN(C)C)c2ccccn2)cc1 [Mepyramin]
Mean decrease in oedema (ear thickness, Table 2) [6]: 44%

IC50 ([5]; Neutrophil): 10 µM
IC50 (PAF receptor [4]): 2 µM
Compound: CCCCCCCCCCCCCCCC(=O)OC[C@H](CO[C@H]1O[C@H](CS(=O)(=O)O)[C@@H](O)[C@H](O)[C@H]1O)OC(=O)CCCCCCCCCCCCCCC [SQDG of the formula III, 1,2-O,O-dipalmitoyl-[6'-sulpho-α-D-quinovopyranosyl(1'→3)]-sn-glycerol]

Compound: CCCCC/C=C\C/C=C\C/C=C\C/C=C\CCCC(=O)O [arachidonic acid]
inhibition of leukotriene B4 synthesis [2]: inhibitory activity

Compound: CCCCC/C=C\C/C=C\CCCCCCCC(=O)O [linoleic acid]
inhibition of leukotriene B4 synthesis [2]: inhibitory activity

Compound: digalactosyldiacylglycerol [DGDG]
inhibitory activity in the PAF induced exocytosis model [5]: no inhibitory activity
inhibition of tumour promotion compared with SQDG (tumour promotion): inhibit tumour promotion more intensely than SQDG

IC50 [5]: 80 µM
IC50 (PAF receptor [4]): 25 µM
Compound: CC1C(=O)OC2C(O)C34C5CC(C(C)(C)C)C36C(OC(=O)C6O)OC4(C(=O)O5)C12O (stereo not drawn) [BN 52021]
anti-inflammatory properties in several in vivo and in vitro models (PAF receptor [3]): anti-inflammatory properties
effect on PAF enhancement of carrageenan induced oedema [7]: capable of abolishing this enhancement

Compound: CC/C=C\C/C=C\C/C=C\CCCCCCCC(=O)O [linolenic acid]
inhibition of leukotriene B4 synthesis [2]: inhibitory activity
